Test [1] is described as follows: Selectivity index, ratio of IC50 for CDK2 (unknown origin) to CDK1 (unknown origin).
Test [2] concerns the target Fibroblast growth factor receptor (Homo sapiens, UniProt P22607+P11362+P22455+P21802). Put plainly: Inhibition of FGFR (unknown origin) by FRET assay. It is filed as protein assay.
Test [3] concerns A-375. Put plainly: Antiproliferative activity against human A-375 cells assessed as growth inhibition incubated at 10 uM for 24 hrs by MTT assay relative to control. It is filed as functional. The settings on record: read-out: GI.
The target in test [4] is Insulin-like growth factor 1 receptor (Homo sapiens, UniProt P08069). Put plainly: Inhibition of IGF1R (unknown origin) by FRET assay.
Chain of Insulin-like growth factor 1 receptor (P08069 31-736 limits assumed): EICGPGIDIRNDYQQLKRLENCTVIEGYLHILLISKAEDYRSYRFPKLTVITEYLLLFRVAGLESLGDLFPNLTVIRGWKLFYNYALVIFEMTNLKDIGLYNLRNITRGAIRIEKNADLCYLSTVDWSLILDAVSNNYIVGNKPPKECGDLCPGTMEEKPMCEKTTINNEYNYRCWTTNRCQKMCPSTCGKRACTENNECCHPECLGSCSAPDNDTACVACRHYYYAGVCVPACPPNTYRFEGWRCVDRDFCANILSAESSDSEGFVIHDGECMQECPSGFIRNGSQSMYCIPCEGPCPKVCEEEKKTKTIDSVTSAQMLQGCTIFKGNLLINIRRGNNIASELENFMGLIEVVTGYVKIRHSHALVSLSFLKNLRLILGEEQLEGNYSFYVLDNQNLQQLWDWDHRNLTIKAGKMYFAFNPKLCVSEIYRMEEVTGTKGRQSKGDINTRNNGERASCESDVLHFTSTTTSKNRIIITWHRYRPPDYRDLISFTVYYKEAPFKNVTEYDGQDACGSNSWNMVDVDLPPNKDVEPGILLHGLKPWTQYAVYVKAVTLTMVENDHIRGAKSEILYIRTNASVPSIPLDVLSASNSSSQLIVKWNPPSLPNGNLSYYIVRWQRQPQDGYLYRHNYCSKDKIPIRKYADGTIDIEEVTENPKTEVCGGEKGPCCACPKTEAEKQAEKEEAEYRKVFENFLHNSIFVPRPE
Chain of Insulin-like growth factor 1 receptor (P08069 741-1367 limits assumed): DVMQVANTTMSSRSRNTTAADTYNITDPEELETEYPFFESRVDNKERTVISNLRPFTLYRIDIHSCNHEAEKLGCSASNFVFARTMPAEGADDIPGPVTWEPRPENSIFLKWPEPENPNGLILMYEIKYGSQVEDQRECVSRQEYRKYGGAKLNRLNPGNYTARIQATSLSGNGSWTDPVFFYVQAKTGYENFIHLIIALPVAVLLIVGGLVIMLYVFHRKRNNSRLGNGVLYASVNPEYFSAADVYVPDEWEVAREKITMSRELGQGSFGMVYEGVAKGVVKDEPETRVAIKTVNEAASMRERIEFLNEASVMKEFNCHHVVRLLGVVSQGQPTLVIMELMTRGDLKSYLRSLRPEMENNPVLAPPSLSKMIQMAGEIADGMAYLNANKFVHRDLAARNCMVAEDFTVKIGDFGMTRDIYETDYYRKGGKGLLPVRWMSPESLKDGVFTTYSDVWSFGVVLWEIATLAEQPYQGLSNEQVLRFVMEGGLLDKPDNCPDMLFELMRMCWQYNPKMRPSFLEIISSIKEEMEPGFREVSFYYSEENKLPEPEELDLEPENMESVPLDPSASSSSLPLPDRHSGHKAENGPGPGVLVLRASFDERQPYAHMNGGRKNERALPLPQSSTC
A short description of test [5]: Antiproliferative activity against human MDA-PATC53 cells assessed as growth inhibition incubated at 10 uM for 24 hrs by MTT assay relative to control. It is filed as functional. The settings on record: read-out: GI.
For test [6], the system named is HT-29. Briefly: Antiproliferative activity against human HT-29 cells assessed as growth inhibition incubated at 10 uM for 24 hrs by MTT assay relative to control. It is filed as functional. The settings on record: read-out: GI. In general terms: Formazan colour is commonly taken as a measure of viable cells.
In test [7] the target is Serine/threonine-protein kinase B-raf (Homo sapiens, UniProt P15056). Briefly: Inhibition of BRAF (unknown origin) by FRET assay.
Chain of Serine/threonine-protein kinase B-raf (P15056 whole entry): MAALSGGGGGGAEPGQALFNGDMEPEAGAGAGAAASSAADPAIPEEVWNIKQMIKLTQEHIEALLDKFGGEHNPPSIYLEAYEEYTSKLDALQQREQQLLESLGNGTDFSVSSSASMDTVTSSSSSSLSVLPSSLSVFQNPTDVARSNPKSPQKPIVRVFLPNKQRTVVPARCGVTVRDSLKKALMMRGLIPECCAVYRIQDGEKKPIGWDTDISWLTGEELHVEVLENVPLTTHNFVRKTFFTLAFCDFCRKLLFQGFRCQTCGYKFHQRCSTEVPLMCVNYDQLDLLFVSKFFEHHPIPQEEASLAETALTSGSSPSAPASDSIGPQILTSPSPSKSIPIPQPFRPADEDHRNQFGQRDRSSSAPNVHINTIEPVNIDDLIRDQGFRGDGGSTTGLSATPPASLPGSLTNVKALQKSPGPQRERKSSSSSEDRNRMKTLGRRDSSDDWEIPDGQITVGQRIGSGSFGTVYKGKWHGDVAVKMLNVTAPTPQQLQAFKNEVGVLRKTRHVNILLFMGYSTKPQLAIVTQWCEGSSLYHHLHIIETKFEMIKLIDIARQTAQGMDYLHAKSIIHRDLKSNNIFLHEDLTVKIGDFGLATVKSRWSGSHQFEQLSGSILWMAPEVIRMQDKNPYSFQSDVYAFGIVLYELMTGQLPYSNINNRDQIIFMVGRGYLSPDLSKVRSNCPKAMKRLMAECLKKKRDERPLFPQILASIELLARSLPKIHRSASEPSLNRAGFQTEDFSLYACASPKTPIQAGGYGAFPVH
Test [8] has as its system SK-MEL-1. Briefly: Antiproliferative activity against human SK-MEL-1 cells assessed as growth inhibition incubated at 10 uM for 24 hrs by MTT assay relative to control. It is filed as functional. To be noted: read-out: GI.
In test [9] the target is Protein-tyrosine kinase 2-beta (Homo sapiens, UniProt Q14289). Briefly: Inhibition of PTK2B (unknown origin) by FRET assay.
Chain of Protein-tyrosine kinase 2-beta (Q14289 whole entry): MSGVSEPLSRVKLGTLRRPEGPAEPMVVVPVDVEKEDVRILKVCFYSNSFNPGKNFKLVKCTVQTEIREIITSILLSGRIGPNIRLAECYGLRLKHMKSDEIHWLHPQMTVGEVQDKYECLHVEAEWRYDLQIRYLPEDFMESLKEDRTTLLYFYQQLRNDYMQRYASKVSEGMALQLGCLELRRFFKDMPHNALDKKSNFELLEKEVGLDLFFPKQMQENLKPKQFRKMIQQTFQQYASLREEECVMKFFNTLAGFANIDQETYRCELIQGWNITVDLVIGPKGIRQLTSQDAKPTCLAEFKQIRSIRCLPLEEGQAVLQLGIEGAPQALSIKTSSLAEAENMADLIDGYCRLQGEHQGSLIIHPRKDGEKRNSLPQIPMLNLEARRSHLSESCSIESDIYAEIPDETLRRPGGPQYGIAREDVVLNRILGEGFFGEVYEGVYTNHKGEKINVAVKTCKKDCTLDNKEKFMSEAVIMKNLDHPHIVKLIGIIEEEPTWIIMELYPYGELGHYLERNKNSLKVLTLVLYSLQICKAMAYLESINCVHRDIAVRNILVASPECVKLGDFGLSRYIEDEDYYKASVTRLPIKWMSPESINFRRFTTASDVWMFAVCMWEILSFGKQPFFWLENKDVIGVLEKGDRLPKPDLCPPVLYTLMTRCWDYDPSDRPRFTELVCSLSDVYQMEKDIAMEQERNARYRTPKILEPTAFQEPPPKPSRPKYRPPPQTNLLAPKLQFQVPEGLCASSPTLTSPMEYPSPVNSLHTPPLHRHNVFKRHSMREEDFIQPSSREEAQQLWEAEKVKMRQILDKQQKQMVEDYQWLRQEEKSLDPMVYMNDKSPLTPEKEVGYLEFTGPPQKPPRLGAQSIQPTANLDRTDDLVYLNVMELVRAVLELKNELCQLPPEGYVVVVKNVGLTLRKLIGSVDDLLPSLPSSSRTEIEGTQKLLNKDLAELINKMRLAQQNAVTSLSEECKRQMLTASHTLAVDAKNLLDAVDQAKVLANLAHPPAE
For test [10], the target named is T1, Tyrosine-protein kinase receptor UFO (Homo sapiens, UniProt P30530).
T1 sequence (P30530 whole entry): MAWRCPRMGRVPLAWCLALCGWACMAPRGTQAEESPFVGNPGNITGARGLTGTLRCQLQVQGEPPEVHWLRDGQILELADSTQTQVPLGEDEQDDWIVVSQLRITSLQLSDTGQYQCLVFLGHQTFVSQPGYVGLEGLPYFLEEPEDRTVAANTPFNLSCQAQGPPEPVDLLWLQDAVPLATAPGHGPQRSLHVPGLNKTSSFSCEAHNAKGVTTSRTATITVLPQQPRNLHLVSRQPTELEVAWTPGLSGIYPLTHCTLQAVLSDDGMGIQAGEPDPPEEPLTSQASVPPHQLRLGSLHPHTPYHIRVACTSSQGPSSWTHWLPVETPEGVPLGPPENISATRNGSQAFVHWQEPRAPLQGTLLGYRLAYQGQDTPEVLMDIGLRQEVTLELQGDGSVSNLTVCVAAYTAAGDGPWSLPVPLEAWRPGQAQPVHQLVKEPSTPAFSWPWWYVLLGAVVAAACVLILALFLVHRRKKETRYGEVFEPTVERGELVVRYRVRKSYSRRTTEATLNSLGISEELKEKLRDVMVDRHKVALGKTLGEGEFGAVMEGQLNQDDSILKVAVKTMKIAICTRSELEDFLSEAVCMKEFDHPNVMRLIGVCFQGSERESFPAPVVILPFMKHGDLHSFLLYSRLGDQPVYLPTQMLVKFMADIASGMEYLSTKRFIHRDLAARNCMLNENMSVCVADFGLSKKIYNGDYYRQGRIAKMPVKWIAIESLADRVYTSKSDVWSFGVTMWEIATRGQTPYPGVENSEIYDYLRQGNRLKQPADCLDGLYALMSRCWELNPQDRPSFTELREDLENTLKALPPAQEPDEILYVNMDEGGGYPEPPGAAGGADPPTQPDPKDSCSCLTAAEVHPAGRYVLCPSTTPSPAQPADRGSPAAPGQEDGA
Put plainly: Inhibition of AXL (unknown origin) by FRET assay.

Test [11] deals with Cyclin-dependent kinase 2 (Homo sapiens, UniProt P24941). Briefly: Inhibition of CDK2 (unknown origin) by FRET assay.
Test [12] deals with MOLT-4. Briefly: Antiproliferative activity against human MOLT-4 cells assessed as growth inhibition incubated at 10 uM for 24 hrs by MTT assay relative to control. Format: functional. To be noted: read-out: GI.
Test [13] is described as follows: Antiproliferative activity against human PL45 cells assessed as growth inhibition incubated for 24 hrs by MTT assay. Format: functional, cell-based. The settings on record: PL45, 24 h.
In test [14] the test system is MCF7. Briefly: Antiproliferative activity against human MCF7 cells assessed as growth inhibition incubated at 10 uM for 24 hrs by MTT assay relative to control. Format: functional. To be noted: read-out: GI.
Test [15] is described as follows: Selectivity index, ratio of IC50 for CDK5 (unknown origin) to CDK1 (unknown origin).
For test [16], the system named is BT-549. Briefly: Antiproliferative activity against human BT-549 cells assessed as growth inhibition incubated at 10 uM for 24 hrs by MTT assay relative to control. It is filed as functional. The settings on record: read-out: GI.
Test [17] deals with G-361. Briefly: Antiproliferative activity against human G-361 cells assessed as growth inhibition incubated at 10 uM for 24 hrs by MTT assay relative to control. Format: functional. To be noted: read-out: GI.
Test [18] is described as follows: Antiproliferative activity against human PL45 cells assessed as growth inhibition incubated at 10 uM for 24 hrs by MTT assay relative to control. It is filed as functional. To be noted: read-out: GI.
The subject of test [19] is T84. Briefly: Antiproliferative activity against human T84 cells assessed as growth inhibition incubated at 10 uM for 24 hrs by MTT assay relative to control. It is filed as functional. The settings on record: read-out: GI.
Test [20] addresses Cyclin-dependent kinase 1 (Homo sapiens, UniProt P06493). Briefly: Inhibition of CDK1 (unknown origin) by FRET assay.
A short description of test [21]: Antiproliferative activity against human MDA-PATC53 cells assessed as growth inhibition incubated for 24 hrs by MTT assay. It is filed as functional, cell-based. The settings on record: MDA-PATC53, 24 h.
Test [22] has as its target Cyclin-dependent kinase 5 (Homo sapiens, UniProt Q00535). Put plainly: Inhibition of CDK5 (unknown origin) by FRET assay.
Test [23] has as its system KG-1. Briefly: Antiproliferative activity against human KG-1 cells assessed as growth inhibition incubated at 10 uM for 24 hrs by MTT assay relative to control. To be noted: read-out: GI. Format: functional.
Test [24] deals with Tyrosine-protein kinase JAK1 (Homo sapiens, UniProt P23458). Briefly: Inhibition of JAK1 (unknown origin) by FRET assay.
Chain of Tyrosine-protein kinase JAK1 (P23458 whole entry): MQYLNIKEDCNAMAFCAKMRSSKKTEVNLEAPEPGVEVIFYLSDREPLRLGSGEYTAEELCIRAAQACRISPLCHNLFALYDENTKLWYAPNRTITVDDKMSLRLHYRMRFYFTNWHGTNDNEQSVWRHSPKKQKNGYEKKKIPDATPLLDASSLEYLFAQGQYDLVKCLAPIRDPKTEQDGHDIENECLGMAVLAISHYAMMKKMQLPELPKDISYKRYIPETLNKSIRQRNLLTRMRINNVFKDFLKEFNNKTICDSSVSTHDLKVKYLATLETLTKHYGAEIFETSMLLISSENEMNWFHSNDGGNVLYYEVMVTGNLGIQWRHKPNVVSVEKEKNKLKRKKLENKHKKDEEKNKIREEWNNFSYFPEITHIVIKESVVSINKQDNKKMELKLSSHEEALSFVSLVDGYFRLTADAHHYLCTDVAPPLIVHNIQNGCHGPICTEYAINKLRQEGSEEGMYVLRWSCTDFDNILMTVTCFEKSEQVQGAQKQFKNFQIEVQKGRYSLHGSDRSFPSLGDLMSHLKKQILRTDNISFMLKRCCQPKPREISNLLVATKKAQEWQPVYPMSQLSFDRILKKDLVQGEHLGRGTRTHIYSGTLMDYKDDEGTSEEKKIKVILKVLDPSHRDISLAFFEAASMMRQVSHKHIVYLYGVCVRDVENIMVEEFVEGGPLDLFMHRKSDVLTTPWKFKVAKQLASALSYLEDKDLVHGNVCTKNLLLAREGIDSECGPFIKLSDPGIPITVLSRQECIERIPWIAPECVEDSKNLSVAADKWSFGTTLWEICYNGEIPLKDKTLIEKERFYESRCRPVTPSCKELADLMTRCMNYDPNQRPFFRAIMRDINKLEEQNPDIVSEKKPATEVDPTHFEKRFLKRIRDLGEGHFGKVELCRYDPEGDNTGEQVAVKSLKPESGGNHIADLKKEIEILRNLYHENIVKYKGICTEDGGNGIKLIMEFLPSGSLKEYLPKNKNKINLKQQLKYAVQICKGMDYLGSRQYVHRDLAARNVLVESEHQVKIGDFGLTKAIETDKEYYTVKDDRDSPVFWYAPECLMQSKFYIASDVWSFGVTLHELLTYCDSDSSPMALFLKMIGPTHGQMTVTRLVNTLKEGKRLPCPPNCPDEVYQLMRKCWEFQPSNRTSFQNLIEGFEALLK

pIC50: −log10 of the molar value.

Drawing on ChEMBL document CHEMBL5352421, “Identification of novel piperazine-tethered phthalazines as selective CDK1 inhibitors endowed with in vitro anticancer activity toward the pancreatic cancer” (Eur J Med Chem, 2022), this text covers Ratio IC50, IC50 and inhibition of growth for seven molecules.

Usually IC50 stands for the concentration that gives 50% inhibition. A lower IC50 goes with greater potency. As usually defined, the pIC50 is −log10 of the IC50, conventionally taken in molar units.

Chain of Cyclin-dependent kinase 5 (Q00535 whole entry): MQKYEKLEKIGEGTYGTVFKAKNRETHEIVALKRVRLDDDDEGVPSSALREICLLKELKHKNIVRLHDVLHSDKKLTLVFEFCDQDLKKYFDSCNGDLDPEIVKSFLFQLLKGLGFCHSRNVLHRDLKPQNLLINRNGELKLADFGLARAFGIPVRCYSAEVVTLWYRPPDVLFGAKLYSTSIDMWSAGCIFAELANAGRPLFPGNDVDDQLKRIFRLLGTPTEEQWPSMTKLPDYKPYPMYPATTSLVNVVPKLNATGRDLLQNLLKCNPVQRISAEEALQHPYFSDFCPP
Chain of Cyclin-dependent kinase 1 (P06493 whole entry): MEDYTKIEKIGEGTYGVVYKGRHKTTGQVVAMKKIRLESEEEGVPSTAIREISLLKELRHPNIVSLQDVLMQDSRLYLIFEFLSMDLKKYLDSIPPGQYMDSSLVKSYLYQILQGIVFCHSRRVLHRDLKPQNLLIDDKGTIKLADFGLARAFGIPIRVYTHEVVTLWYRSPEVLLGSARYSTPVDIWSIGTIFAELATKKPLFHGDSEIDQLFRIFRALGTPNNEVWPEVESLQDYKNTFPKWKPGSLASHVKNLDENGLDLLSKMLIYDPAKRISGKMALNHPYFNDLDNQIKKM

As for `O=C(Nc1ccccc1)N1CCN(c2nnc(Cc3ccccc3)c3ccccc23)CC1`, the Ratio IC50 in test [1] is 5.31; in [15] it was 2.95. For the same molecule, the IC50 in test [2] was determined as 2579 nM. The inhibition of growth at 10 µM in test [3] stood at 62%; in test [5], 77.9%; in test [6] it was 36.2%; in test [8] it was 49.7%; in test [12] it was 41%; in [14] it was 18.4%. Also, the inhibition of growth at 10 µM in [16] was determined as 76.5%; in test [17], 23.8%; in [18], 87.4%; in test [19], 63.1%; in test [23] it was 29.7%. Besides, the pIC50 is 5.89 in test [4]; 5.03 in [7]; 5.60 in test [9]; 5.12 in test [10]; 6.54 in [11]; 5.78 in test [13]. Besides, the pIC50 in test [20] was 7.27; in test [21], 5.53; in test [22] it was 6.80; in test [24], 5.44.
`O=C(Nc1ccc(Cl)cc1)N1CCN(c2nnc(Cc3ccccc3)c3ccccc23)CC1`: the Ratio IC50 was 1.76 in [1] and 14.2 in test [15]. In [2], this molecule had an IC50 of 6346 nM. Besides, the inhibition of growth at 10 µM was found to be 66.3% in [3]; 67.4% in [5]; 81.2% in [6]; 50.1% in test [8]; 33% in test [12]; 64.8% in test [14]. Further, the inhibition of growth at 10 µM in [16] was determined as 23%; in test [17] it was 47%; in [18], 81.8%; in [19] it was 29.4%; in [23], 57.9%. Moreover, the pIC50 in test [4] is 5.50; in [7], 5.44; in test [9], 5.88; in test [10], 5.06; in [11], 6.99; in [13], 5.66. Moreover, the pIC50 in [20] was 7.23; in [21] it was 5.28; in test [22], 6.08; in [24], 5.34.
`COc1ccc(Cc2nnc(N3CCN(C(=O)Nc4ccccc4)CC3)c3ccccc23)cc1`: the Ratio IC50 in test [1] is 6.19; in test [15] it was 7.22. The molecule also registered an IC50 in test [2] of 2628 nM. In addition, the inhibition of growth at 10 µM in [3] worked out at 36.1%; in test [5], 46.3%; in [6], 51.3%; in test [8], 27.1%; in [12], 27.8%; in test [14], 33.4%. The inhibition of growth at 10 µM is 56% in test [16]; 29.8% in test [17]; 73.6% in test [18]; 53.6% in [19]; 49.7% in test [23]. For the same molecule, the pIC50 in [4] is 5.27; in test [7], 5.32; in test [9] it was 5.24; in [10] it was 5.63; in [11], 6.29; in test [13] it was 5.53. For the same molecule, the pIC50 in test [20] is 7.08; in test [21], 4.95; in [22] it was 6.22; in test [24], 5.69.
Turning to `CCc1cnn2c(NCc3ccc[n+]([O-])c3)cc(N3CCCC[C@H]3CCO)nc12` [DINACICLIB], the pIC50 is 7.82 in test [13] and 7.62 in test [21].
On to `COc1ccc(NC(=S)N2CCN(c3nnc(Cc4ccccc4)c4ccccc34)CC2)cc1`, for which the figures for the Ratio IC50 in [1] and in test [15] were 2.43 and 3.94, respectively. This molecule also registered a concentration for half-maximal inhibition (IC50) in [2] of 5517 nM. The inhibition of growth at 10 µM worked out at 11.2% in test [3]; 49% in test [5]; 21.9% in test [6]; 6.64% in test [8]; 14.2% in [12]; 10.1% in test [14]. The inhibition of growth at 10 µM in test [16] was 8.65%; in [17] it was 24.6%; in test [18], 49.6%; in test [19], 9.67%; in test [23], 1.36%. Besides, the pIC50 was 5.06 in test [4]; 5.35 in test [7]; 5.44 in test [9]; 5.35 in [10]; 6.51 in test [11]; 4.90 in [13]. Besides, the pIC50 in test [20] is 6.90; in test [21], 4.99; in test [22] it was 6.30; in test [24] it was 5.59.
As for `O=C(c1ccc(Cl)cc1)N1CCN(c2nnc(Cc3ccccc3)c3ccccc23)CC1`, the values for the Ratio IC50 in test [1] and in test [15] were 1.21 and 7.32, respectively. Also, the IC50 in [2] worked out at 2628 nM. Further, the inhibition of growth at 10 µM amounted to 15.3% in test [3]; 45.1% in test [5]; 4.9% in test [6]; 10.4% in test [8]; 12.1% in test [12]; 18.6% in test [14]. For the same molecule, the inhibition of growth at 10 µM in test [16] is 0.65%; in [17], 24.7%; in test [18], 57.4%; in [19] it was 16.7%; in test [23], 8.36%. The pIC50 in [4] was 5.06; in test [7], 5.83; in test [9], 5.46; in test [10], 5.46; in [11], 6.86; in [13], 5.07. Besides, the pIC50 in test [20] is 6.94; in [21], 4.89; in [22], 6.08; in test [24], 5.47.
For the molecule `COc1ccc(Cc2nnc(N3CCN(C(=S)Nc4ccc(OC)cc4)CC3)c3ccccc23)cc1`, the Ratio IC50 amounted to 4.7 in test [1] and 5.36 in test [15]. Also, the IC50 in test [2] came to 3566 nM. The inhibition of growth at 10 µM was 47.9% in test [3]; 66.4% in [5]; 51.7% in test [6]; 29.4% in test [8]; 31.4% in test [12]; 73.1% in [14]. Besides, the inhibition of growth at 10 µM came to 23.7% in [16]; 58.3% in [17]; 83.5% in test [18]; 19.3% in [19]; 23.9% in test [23]. For the same molecule, the pIC50 in [4] is 5.25; in test [7], 5.52; in test [9] it was 5.44; in test [10], 5.07; in test [11] it was 6.40; in [13] it was 5.68. Besides, the pIC50 was 7.07 in [20], 5.18 in test [21], 6.34 in test [22] and 5.81 in [24].
